Reference: ChEMBL document CHEMBL5356939, “Research progress of anticancer drugs targeting CDK12” (RSC Med Chem, 2023)
Blank lines part the entries; values can stand above or below the compound they belong to.

Columns and labels:
[1] = target: T1, Cyclin-dependent kinase 9 (Homo sapiens, UniProt P50750); test: Inhibition of recombinant human CDK9 expressed in baculovirus infected Insect cell measured after 30 mins by scintillation counter analysis
[2] = target: T2, Protein cereblon/Cyclin-dependent kinase 12 (Homo sapiens, UniProt Q96SW2+Q9NYV4); test: Protac activity at CRBN/CDK12 in human MOLT-4 cells assessed as […] by Westernblot analysis; assay type: cell-based
T2 sequence (Q9NYV4 whole entry, the tested form may be a part): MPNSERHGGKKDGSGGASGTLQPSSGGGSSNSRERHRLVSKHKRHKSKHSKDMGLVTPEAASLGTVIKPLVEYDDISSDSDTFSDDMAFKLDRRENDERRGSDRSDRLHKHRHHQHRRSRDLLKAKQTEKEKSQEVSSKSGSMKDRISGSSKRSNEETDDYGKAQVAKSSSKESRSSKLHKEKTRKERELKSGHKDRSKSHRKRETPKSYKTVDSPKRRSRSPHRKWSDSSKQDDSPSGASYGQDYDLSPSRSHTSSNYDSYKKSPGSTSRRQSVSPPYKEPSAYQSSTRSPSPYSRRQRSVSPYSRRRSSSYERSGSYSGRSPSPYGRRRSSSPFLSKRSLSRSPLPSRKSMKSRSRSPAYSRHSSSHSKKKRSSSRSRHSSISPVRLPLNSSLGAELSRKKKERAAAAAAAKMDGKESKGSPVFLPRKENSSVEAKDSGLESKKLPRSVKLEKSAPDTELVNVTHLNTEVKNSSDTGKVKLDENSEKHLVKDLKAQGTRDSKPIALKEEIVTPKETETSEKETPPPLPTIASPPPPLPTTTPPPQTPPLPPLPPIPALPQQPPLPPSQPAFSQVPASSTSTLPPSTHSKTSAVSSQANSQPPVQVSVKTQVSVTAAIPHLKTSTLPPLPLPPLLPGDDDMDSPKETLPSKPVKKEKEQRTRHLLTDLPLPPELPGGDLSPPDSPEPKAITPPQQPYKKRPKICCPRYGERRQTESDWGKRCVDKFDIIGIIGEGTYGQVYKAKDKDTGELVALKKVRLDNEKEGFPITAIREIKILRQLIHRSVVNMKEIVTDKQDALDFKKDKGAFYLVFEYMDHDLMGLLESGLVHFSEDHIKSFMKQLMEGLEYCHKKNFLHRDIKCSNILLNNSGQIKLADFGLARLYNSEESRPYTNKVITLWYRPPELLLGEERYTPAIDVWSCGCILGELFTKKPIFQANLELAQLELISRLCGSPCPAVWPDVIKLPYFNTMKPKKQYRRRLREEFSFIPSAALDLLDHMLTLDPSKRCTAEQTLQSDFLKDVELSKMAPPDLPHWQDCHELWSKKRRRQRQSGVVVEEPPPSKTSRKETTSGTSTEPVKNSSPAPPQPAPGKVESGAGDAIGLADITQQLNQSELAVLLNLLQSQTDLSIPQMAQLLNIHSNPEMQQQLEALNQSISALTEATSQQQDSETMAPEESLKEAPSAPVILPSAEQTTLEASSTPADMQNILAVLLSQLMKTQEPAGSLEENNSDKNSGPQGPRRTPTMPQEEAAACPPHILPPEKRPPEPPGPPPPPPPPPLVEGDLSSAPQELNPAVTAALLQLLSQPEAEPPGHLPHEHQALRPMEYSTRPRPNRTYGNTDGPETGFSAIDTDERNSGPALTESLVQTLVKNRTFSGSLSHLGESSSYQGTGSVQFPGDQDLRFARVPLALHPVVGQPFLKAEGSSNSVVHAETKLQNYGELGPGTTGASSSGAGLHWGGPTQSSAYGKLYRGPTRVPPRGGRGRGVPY
T2 sequence (Q96SW2 whole entry, the tested form may be a part): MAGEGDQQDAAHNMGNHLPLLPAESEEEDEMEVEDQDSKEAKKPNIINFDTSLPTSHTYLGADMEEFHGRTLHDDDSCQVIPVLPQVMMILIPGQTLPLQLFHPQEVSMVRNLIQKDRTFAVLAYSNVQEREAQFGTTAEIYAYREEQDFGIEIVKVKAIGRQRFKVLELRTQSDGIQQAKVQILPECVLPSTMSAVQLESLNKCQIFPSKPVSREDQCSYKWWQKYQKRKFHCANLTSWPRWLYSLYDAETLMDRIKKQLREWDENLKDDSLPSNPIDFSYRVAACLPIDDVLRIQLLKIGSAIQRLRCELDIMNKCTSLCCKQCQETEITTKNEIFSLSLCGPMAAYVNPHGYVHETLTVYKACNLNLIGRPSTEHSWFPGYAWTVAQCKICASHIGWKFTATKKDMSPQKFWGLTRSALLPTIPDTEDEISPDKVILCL

[3] = target: T3, Cyclin-dependent kinase 12 (Homo sapiens, UniProt Q9NYV4); test: Inhibition of GST-tagged recombinant human CDK12 (696 to 1082 residues) expressed in Insect cell in presence of ATP by Km ATP assay
T3 sequence (Q9NYV4 whole entry, the tested form may be a part): as the sequence (Q9NYV4 whole entry, the tested form may be a part) above

[4] = target: Cyclin-dependent kinase 1 (Homo sapiens, UniProt P06493); test: Inhibition of full length recombinant human CDK1 expressed in Insect cell in presence of ATP
Sequence of Cyclin-dependent kinase 1 (P06493 whole entry): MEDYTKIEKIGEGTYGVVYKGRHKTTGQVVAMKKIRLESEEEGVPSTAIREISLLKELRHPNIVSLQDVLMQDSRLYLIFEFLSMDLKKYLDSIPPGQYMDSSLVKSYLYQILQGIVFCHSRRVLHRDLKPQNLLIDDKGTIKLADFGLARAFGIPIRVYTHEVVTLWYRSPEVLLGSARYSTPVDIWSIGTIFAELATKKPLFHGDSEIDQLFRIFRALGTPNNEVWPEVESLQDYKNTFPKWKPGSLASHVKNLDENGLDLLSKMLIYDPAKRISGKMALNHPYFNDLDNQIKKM

[5] = target: T4, Cyclin-dependent kinase 7 (Homo sapiens, UniProt P50613); test: Inhibition of full length recombinant human CDK7 expressed in Insect cell in presence of ATP
T4 sequence (P50613 whole entry): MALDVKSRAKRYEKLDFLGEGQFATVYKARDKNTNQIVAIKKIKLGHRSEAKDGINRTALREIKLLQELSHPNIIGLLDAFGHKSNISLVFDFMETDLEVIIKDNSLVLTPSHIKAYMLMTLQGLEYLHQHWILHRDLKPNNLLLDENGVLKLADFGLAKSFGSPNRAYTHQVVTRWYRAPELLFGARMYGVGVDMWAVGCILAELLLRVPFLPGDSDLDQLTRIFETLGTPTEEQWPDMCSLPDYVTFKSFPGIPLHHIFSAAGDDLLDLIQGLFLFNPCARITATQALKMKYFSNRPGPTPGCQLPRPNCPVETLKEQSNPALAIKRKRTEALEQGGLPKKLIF

[6] = target: Cyclin-dependent kinase 6 (Homo sapiens, UniProt Q00534)
Sequence of Cyclin-dependent kinase 6 (Q00534 whole entry): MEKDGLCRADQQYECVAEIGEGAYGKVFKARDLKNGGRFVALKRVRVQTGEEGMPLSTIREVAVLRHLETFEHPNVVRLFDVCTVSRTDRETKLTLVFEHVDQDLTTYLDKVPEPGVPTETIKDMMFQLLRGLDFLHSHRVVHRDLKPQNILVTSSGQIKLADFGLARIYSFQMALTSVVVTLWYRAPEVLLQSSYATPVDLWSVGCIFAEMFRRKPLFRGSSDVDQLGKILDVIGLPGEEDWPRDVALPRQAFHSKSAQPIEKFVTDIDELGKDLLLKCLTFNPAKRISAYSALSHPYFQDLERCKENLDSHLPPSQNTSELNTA
Description: Binding affinity to CDK6 (unknown origin) assessed as dissociation constant

[7] = target: T1, Cyclin-dependent kinase 9
Description: Binding affinity to CDK9 (unknown origin) assessed as dissociation constant

[8] = Antiproliferative activity against human Neuroblastoma cell assessed as […] measured after 72 hrs; assay type: functional, cell-based
[9] = tested on: Lung cancer cell line; test: Antiproliferative activity against human Lung cancer cell line assessed as […] measured after 72 hrs; assay type: functional, cell-based
[10] = target: Cyclin-dependent kinase 2 (Homo sapiens, UniProt P24941); test: Inhibition of full length recombinant human CDK2 expressed in Insect cell in presence of ATP
[11] = target: T3, Cyclin-dependent kinase 12; test: Inhibition of GST-tagged recombinant human CDK12 (696 to 1082 residues) expressed in Insect cell in presence of ATP by high ATP assay
[12] = target: T1, Cyclin-dependent kinase 9; test: Inhibition of full length recombinant human CDK9 expressed in Insect cell in presence of ATP
[13] = target: T2, Protein cereblon/Cyclin-dependent kinase 12; test: Protac activity at CRBN/CDK12 in human Jurkat cells assessed as […] measured after 6 hrs by Westernblot analysis; assay type: cell-based
[14] = target: Cyclin-dependent kinase 12 (Mus musculus, UniProt Q14AX6); test: Inhibition of CDK12 in mouse OV2944-HM-1 cells by Westernblot analysis; assay type: cell-based
Sequence of Cyclin-dependent kinase 12 (Mus musculus, UniProt Q14AX6) (Q14AX6 whole entry): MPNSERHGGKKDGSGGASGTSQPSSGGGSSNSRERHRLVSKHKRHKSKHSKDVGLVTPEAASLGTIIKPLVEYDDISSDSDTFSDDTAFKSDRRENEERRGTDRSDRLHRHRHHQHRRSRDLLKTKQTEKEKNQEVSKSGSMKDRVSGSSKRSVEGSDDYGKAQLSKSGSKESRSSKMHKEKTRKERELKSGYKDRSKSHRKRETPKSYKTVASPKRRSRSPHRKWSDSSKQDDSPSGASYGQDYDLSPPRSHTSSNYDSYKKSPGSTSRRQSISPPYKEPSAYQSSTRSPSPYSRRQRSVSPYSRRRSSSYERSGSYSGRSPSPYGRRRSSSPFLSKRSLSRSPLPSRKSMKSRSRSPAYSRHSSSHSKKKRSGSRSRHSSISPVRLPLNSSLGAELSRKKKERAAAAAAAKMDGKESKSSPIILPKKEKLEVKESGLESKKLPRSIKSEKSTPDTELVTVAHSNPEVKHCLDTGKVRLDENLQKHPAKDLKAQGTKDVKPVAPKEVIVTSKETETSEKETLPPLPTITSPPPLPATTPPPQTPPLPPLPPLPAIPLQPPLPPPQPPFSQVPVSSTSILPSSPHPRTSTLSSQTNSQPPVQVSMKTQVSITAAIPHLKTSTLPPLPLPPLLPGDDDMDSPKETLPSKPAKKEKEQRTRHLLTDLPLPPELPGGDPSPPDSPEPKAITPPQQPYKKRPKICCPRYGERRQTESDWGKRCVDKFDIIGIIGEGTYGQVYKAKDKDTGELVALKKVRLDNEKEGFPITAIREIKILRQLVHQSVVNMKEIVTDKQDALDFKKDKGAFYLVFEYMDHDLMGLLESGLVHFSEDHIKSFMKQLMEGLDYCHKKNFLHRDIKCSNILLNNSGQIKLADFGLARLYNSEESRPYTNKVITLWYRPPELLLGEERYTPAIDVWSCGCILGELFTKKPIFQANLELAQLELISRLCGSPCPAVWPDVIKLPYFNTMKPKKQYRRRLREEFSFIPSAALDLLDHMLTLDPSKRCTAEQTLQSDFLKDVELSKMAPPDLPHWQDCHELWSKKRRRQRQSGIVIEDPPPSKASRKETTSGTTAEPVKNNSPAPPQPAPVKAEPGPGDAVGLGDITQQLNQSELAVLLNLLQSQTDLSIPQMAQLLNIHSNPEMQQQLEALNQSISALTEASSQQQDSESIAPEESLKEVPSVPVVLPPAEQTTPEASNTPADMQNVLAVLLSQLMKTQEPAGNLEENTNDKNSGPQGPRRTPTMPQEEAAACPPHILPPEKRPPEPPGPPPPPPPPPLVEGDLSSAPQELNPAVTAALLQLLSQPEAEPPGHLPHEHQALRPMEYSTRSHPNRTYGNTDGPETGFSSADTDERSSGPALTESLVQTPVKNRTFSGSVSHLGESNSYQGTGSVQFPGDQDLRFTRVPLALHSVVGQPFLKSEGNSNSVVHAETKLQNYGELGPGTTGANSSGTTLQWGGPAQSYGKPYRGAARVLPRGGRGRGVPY

[15] = target: T4, Cyclin-dependent kinase 7; test: Inhibition of CDK7 (unknown origin)
[16] = target: Cyclin-dependent kinase 13 (Homo sapiens, UniProt Q14004); test: Inhibition of CDK13 (unknown origin)
[17] = target: T3, Cyclin-dependent kinase 12; test: Inhibition of CDK12 (unknown origin)

T1 sequence (P50750 whole entry): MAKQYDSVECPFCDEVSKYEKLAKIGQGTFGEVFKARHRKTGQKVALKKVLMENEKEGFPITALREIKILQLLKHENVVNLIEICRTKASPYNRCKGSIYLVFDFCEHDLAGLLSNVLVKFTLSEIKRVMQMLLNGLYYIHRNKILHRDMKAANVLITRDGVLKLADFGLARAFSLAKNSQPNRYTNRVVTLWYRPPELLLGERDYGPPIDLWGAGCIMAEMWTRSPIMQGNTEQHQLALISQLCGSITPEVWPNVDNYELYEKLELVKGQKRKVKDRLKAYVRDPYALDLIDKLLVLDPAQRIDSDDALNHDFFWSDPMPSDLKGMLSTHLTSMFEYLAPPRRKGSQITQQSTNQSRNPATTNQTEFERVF

IC50 [3]: 14 nM | IC50 [4]: 28600 nM | IC50 [5]: > 30000 nM
Compound: CCn1cnc2c(NCc3nc4ccc(F)c(F)c4[nH]3)nc(N3CCCC[C@H]3CCO)nc21

Kd [6]: 5100 nM | Kd [7]: > 10000 nM
Compound: Cn1cc(-n2cnc3c(NCc4nc5cc(Cl)c(Cl)cc5[nH]4)nc(N4CCOCC4)nc32)cn1

IC50 [3]: 31 nM
Compound: CC(C)n1cnc2c(NCc3nc4ccc(F)c(F)c4[nH]3)nc(N3CCCC[C@H]3CCO)nc21

IC50 [9]: 8 nM
Compound: C=CC(=O)Nc1cccc(Nc2nc(N3CCCC[C@H]3CCO)nc3c2ncn3CC)c1
IC50 [8]: 8 nM

IC50 [3]: 22 nM | IC50 [10]: 40 nM | IC50 [4]: 3410 nM | IC50 [5]: 21200 nM | IC50 [11]: 47 nM | IC50 [12]: 240 nM
Compound: CCc1cnn2c(NCc3nc4ccc(F)c(F)c4[nH]3)cc(N3CCCC[C@H]3CCO)nc12

The remaining lines, values behind:

Compound: CN(C)C/C=C/C(=O)Nc1ccc(C(=O)N2CCC[C@@H](Nc3ncc(Cl)c(-c4c[nH]c5ccccc45)n3)C2)cc1
IC50 [1]: 10500 nM

Compound: Clc1cnc(N[C@H]2CCCNC2)nc1-c1c[nH]c2ccccc12
IC50 [2]: 107 nM

Compound: CC(C)S(=O)(=O)c1ccccc1Nc1nc(N[C@H]2CCCN(CCCCCCCNC(=O)COc3cccc4c3C(=O)N(C3CCC(=O)NC3=O)C4=O)C2)ncc1Cl (stereo partly drawn)
IC50 [13]: 6 nM

Compound: O=C(COc1cccc2c1C(=O)N(C1CCC(=O)NC1=O)C2=O)NCCCCCCCN1CCC[C@H](Nc2ncc(Cl)c(-c3c[nH]c4ccccc34)n2)C1 (stereo partly drawn)
IC50 [2]: 9 nM

Compound: O=C(CN1CCC[C@@H](Nc2ncc(Cl)c(-c3c[nH]c4ccccc34)n2)C1)Nc1ccc([As](O)O)cc1
EC50 [14]: 35 nM

Compound: CN(C)C/C=C/C(O)Nc1ccc(C(=O)Nc2cccc(Nc3ncc(Cl)c(-c4c[nH]c5ccccc45)n3)c2)cc1 (stereo not drawn)
IC50 [15]: 238 nM | IC50 [16]: 628 nM | IC50 [17]: 893 nM

Compound: O=C(CN1CCC[C@@H](Nc2ncc(Cl)c(-c3c[nH]c4ccccc34)n2)C1)Nc1ccc([As]2SCCS2)cc1
EC50 [14]: 32 nM
